ChEMBL document CHEMBL1153434, “Pyridoimidazolones as novel potent inhibitors of v-Raf murine sarcoma viral oncogene homologue B1 (BRAF)” (J Med Chem, 2009)

What was measured:
[1] = target: Serine/threonine-protein kinase B-raf (Homo sapiens, UniProt P15056, V600E)
Description: Inhibition of BRAF V600E mutant

[2] = Growth inhibition of human WM266.4 cells expressing BRAF mutant by SRB assay; assay type: functional, cell-based; conditions: WM 266-4
[3] = Half life in plasma of BRAF mutant expressing WM266.4 cells xenografted Crl:CD1-Foxn1nu mouse at 2 mg/kg, iv; assay type: ADME, organism-based; parameters: dose 2 mg/kg, route intravenous
[4] = Cmax in plasma of BRAF mutant expressing WM266.4 cells xenografted Crl:CD1-Foxn1nu mouse at 2 mg/kg, iv; assay type: ADME, organism-based; parameters: dose 2 mg/kg, route intravenous
[5] = Half life in tumor of BRAF mutant expressing WM266.4 cells xenografted Crl:CD1-Foxn1nu mouse at 2 mg/kg, iv; assay type: ADME, organism-based, Neoplasm; parameters: dose 2 mg/kg, route intravenous
[6] = Clearance in plasma of BRAF mutant expressing WM266.4 cells xenografted Crl:CD1-Foxn1nu mouse at 2 mg/kg, iv; assay type: ADME, organism-based; parameters: dose 2 mg/kg, route intravenous
[7] = AUC in plasma of BRAF mutant expressing WM266.4 cells xenografted Crl:CD1-Foxn1nu mouse at 2 mg/kg, iv; assay type: ADME, organism-based; parameters: dose 2 mg/kg, route intravenous
[8] = Clearance in tumor of BRAF mutant expressing WM266.4 cells xenografted Crl:CD1-Foxn1nu mouse at 2 mg/kg, iv; assay type: ADME, organism-based, Neoplasm; parameters: dose 2 mg/kg, route intravenous; conditions: in vivo
[9] = Cmax in tumor of BRAF mutant expressing WM266.4 cells xenografted Crl:CD1-Foxn1nu mouse at 2 mg/kg, iv; assay type: ADME, organism-based, Neoplasm; parameters: dose 2 mg/kg, route intravenous; conditions: read-out: Cmax_tumor
[10] = AUC in tumor of BRAF mutant expressing WM266.4 cells xenografted Crl:CD1-Foxn1nu mouse at 2 mg/kg, iv; assay type: ADME, organism-based, Neoplasm; parameters: dose 2 mg/kg, route intravenous
[11] = Metabolic stability in mouse liver microsomes assessed as drug metabolism at 10 uM; assay type: ADME, Microsome; conditions: read-out: Activity
[12] = AUC in BALB/cAnNCrl mouse muscle at 2 mg/kg, iv; assay type: ADME, organism-based, Muscle tissue; parameters: dose 2 mg/kg, route intravenous
[13] = tested on: Muscle tissue; experiment: Clearance in BALB/cAnNCrl mouse muscle at 2 mg/kg, iv; assay type: ADME, organism-based; parameters: dose 2 mg/kg, route intravenous; conditions: in vivo
[14] = Clearance in BALB/cAnNCrl mouse plasma at 2 mg/kg, iv; assay type: ADME, organism-based; parameters: dose 2 mg/kg, route intravenous
[15] = Cmax in BALB/cAnNCrl mouse plasma at 2 mg/kg, iv; assay type: ADME, organism-based; parameters: dose 2 mg/kg, route intravenous
[16] = Half life in BALB/cAnNCrl mouse plasma at 2 mg/kg, iv; assay type: ADME, organism-based; parameters: dose 2 mg/kg, route intravenous
[17] = Cmax in BALB/cAnNCrl mouse muscle at 2 mg/kg, iv; assay type: ADME, organism-based, Muscle tissue; parameters: dose 2 mg/kg, route intravenous
[18] = Half life in BALB/cAnNCrl mouse muscle at 2 mg/kg, iv; assay type: ADME, organism-based, Muscle tissue; parameters: dose 2 mg/kg, route intravenous
[19] = AUC in BALB/cAnNCrl mouse plasma at 2 mg/kg, iv; assay type: ADME, organism-based; parameters: dose 2 mg/kg, route intravenous

Chain of Serine/threonine-protein kinase B-raf (P15056 2-766 V600E limits assumed): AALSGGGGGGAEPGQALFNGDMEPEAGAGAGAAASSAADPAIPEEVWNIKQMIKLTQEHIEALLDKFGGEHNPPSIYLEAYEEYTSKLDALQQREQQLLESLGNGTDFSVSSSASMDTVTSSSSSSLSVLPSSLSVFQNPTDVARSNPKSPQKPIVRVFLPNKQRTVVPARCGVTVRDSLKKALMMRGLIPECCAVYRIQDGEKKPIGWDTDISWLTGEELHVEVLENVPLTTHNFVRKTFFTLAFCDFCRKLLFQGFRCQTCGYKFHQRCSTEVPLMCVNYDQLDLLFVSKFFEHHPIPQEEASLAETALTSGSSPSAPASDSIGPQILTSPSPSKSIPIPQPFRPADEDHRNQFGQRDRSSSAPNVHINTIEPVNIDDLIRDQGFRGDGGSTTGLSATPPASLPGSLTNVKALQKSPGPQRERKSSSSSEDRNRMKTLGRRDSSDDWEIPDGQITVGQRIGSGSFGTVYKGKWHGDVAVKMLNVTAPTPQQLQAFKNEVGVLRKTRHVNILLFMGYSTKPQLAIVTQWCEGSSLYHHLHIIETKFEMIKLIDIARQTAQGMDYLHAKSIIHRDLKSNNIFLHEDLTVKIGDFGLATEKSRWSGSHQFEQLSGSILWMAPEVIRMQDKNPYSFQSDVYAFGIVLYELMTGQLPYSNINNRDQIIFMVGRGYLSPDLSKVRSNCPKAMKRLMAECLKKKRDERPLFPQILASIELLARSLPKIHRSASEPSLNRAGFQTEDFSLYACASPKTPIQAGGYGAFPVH

## O=C(Nc1ccc(Sc2ccnc3[nH]c(=O)[nH]c23)cc1)Nc1cccc(C(F)(F)F)c1
[1]
  IC50: 0.028 µM
[2]
  IC50: 1.42 µM

## O=C(Cc1cccc(C(F)(F)F)c1)Nc1ccc(Oc2ccnc3[nH]c(=O)[nH]c23)cc1
[2]
  IC50: 5 µM

## O=C(Nc1ccc(Oc2ccnc3[nH]c(=O)[nH]c23)cc1)Nc1ccccc1C(F)(F)F
[1]
  IC50: > 100 µM
[2]
  IC50: > 100 µM

## O=C(Nc1ccc(Oc2ccnc3[nH]c(=O)[nH]c23)cc1)Nc1ccc(C(F)(F)F)cc1
[1]
  IC50: > 100 µM
[2]
  IC50: > 100 µM

## O=C(Nc1ccc(Oc2ccnc3[nH]c(=O)[nH]c23)cc1)Nc1cccc(C(F)(F)F)c1
[1]
  IC50: 0.014 µM
[2]
  IC50: > 100 µM

## O=C(Nc1ccccc1)Nc1ccc(Oc2ccnc3[nH]c(=O)[nH]c23)cc1
[1]
  IC50: > 100 µM
[2]
  IC50: > 100 µM

## O=C(Nc1ccc(Cl)cc1)Nc1ccc(Oc2ccnc3[nH]c(=O)[nH]c23)cc1
[1]
  IC50: > 100 µM
[2]
  IC50: > 100 µM

## O=C(Nc1ccc(Oc2ccnc3[nH]c(=O)[nH]c23)cc1)Nc1cc(F)cc(N2CCOCC2)c1
[1]
  IC50: 0.6 µM
[2]
  IC50: 41 µM

## O=c1[nH]c2nccc(Oc3ccc(NS(=O)(=O)c4ccc(C(F)(F)F)cc4)cc3)c2[nH]1
[1]
  IC50: > 100 µM
[2]
  IC50: 41 µM

## O=c1[nH]c2nccc(Oc3ccc(NS(=O)(=O)c4ccc(F)cc4)cc3)c2[nH]1
[1]
  IC50: > 100 µM

## O=c1[nH]c2nccc(Oc3ccc(NS(=O)(=O)c4cccs4)cc3)c2[nH]1
[1]
  IC50: 12.2 µM
[2]
  IC50: 15.6 µM

## Cn1c(=O)[nH]c2nccc(Oc3ccc(NC(=O)Nc4ccc(Cl)c(C(F)(F)F)c4)cc3)c21
[3]
  half-life: 2.58 h
[4]
  Cmax: 2450 nM
[1]
  IC50: 0.022 µM
[5]
  half-life: 9.72 h
[6]
  clearance: 0.283 mL/min
[7]
  AUC: 3.26 µM·h
[8]
  CL: 0.006 L/h
[9]
  Cmax: 1150 nM
[2]
  IC50: 5.3 µM
[10]
  AUC: 4.5 µM·h
[11]
  metabolised at 10 µM: 11%

## O=C(Nc1ccc(Sc2ccnc3[nH]c(=O)[nH]c23)cc1)Nc1ccc(Cl)c(C(F)(F)F)c1
[1]
  IC50: 0.04 µM
[2]
  IC50: 2.1 µM

## O=C(Cc1ccccc1)Nc1ccc(Oc2ccnc3[nH]c(=O)[nH]c23)cc1
[1]
  IC50: 16.7 µM
[2]
  IC50: 73 µM

## O=c1[nH]c2nccc(Oc3ccc(NC(=S)Nc4ccc(Cl)c(C(F)(F)F)c4)cc3)c2[nH]1
[1]
  IC50: 0.085 µM
[2]
  IC50: 10.7 µM

## O=C(Nc1ccc(Oc2ccnc3[nH]c(=O)[nH]c23)cc1)c1ccccc1
[1]
  IC50: > 100 µM
[2]
  IC50: > 100 µM

## O=C(Nc1ccc(Oc2ccnc3[nH]c(=O)[nH]c23)cc1)c1ccc(Cl)c(C(F)(F)F)c1
[1]
  IC50: 15.9 µM
[2]
  IC50: 8.1 µM

## O=C(Cc1cccc(OC(F)(F)F)c1)Nc1ccc(Oc2ccnc3[nH]c(=O)[nH]c23)cc1
[2]
  IC50: 23.9 µM

## O=c1[nH]c2nccc(Oc3ccc(NS(=O)(=O)c4ccc(Cl)c(C(F)(F)F)c4)cc3)c2[nH]1
[1]
  IC50: > 100 µM
[2]
  IC50: 40.3 µM

## O=c1[nH]c2nccc(Oc3ccc(NS(=O)(=O)c4ccc(Cl)cc4)cc3)c2[nH]1
[1]
  IC50: > 100 µM
[2]
  IC50: 39 µM

## Cn1c(=O)[nH]c2c(Oc3ccc(NC(=O)Nc4cccc(C(C)(C)C)c4)cc3)ccnc21
[1]
  IC50: 0.06 µM
[2]
  IC50: 7 µM

## O=C(Nc1ccc(Oc2ccnc3[nH]c(=O)[nH]c23)cc1)c1cccc(Br)c1
[1]
  IC50: 14 µM
[2]
  IC50: 18 µM

## O=C(Nc1ccc(Oc2ccnc3[nH]c(=O)[nH]c23)cc1)c1cccc(OC(F)(F)F)c1
[1]
  IC50: > 100 µM
[2]
  IC50: > 100 µM

## O=C(Nc1ccc(Oc2ccnc3[nH]c(=O)[nH]c23)cc1)c1cc(F)cc(N2CCOCC2)c1
[1]
  IC50: > 100 µM
[2]
  IC50: 44 µM

## O=C(Nc1ccc(Oc2ccnc3[nH]c(=O)[nH]c23)cc1)Nc1cccc(OC(F)(F)F)c1
[1]
  IC50: 0.021 µM
[2]
  IC50: > 100 µM

## COc1ccc(C(F)(F)F)cc1NC(=O)Nc1ccc(Oc2ccnc3[nH]c(=O)[nH]c23)cc1
[1]
  IC50: 0.012 µM
[2]
  IC50: 4.2 µM

## COc1cc(Cl)c(C(F)(F)F)cc1NC(=O)Nc1ccc(Oc2ccnc3[nH]c(=O)[nH]c23)cc1
[1]
  IC50: 0.027 µM
[2]
  IC50: 1.6 µM
[11]
  metabolised at 10 µM: 8%

## O=C(Nc1ccc(Oc2ccnc3[nH]c(=O)[nH]c23)cc1)Nc1cc(C(F)(F)F)ccc1F
[1]
  IC50: 0.052 µM
[2]
  IC50: 3.3 µM

## Cn1c(=O)[nH]c2nccc(Oc3ccc(NC(=O)Nc4cccc(C(C)(C)C)c4)cc3)c21
[1]
  IC50: 0.163 µM
[2]
  IC50: 2.82 µM

## Cn1c(=O)n(C)c2c(Oc3ccc(NC(=O)Nc4ccc(Cl)c(C(F)(F)F)c4)cc3)ccnc21
[1]
  IC50: 0.061 µM
[2]
  IC50: 4.8 µM

## O=C(Nc1ccc(Sc2ccnc3[nH]c(=O)[nH]c23)cc1)Nc1cc(C(F)(F)F)ccc1F
[1]
  IC50: 0.029 µM
[2]
  IC50: 1.28 µM

## O=C(Nc1ccc(Oc2ccnc3[nH]c(=O)[nH]c23)cc1)Nc1ccc(Cl)c(C(F)(F)F)c1
[3]
  half-life: 0.8 h
[4]
  Cmax: 1060 nM
[1]
  IC50: 0.023 µM
[5]
  half-life: 1.24 h
[6]
  clearance: 1.95 mL/min
[7]
  AUC: 0.718 µM·h
[8]
  CL: 0.16 L/h
[9]
  Cmax: 207 nM
[2]
  IC50: 4.2 µM
[10]
  AUC: 0.468 µM·h
[11]
  metabolised at 10 µM: 0%

## O=C(Nc1ccc(Oc2ccnc3[nH]c(=O)[nH]c23)cc1)Nc1cc(Cl)cc(C(F)(F)F)c1
[1]
  IC50: 0.1 µM
[2]
  IC50: 12.8 µM

## O=C(Nc1ccc(Oc2ccnc3[nH]c(=O)[nH]c23)cc1)Nc1cccc(F)c1
[1]
  IC50: 2.84 µM
[2]
  IC50: 13.9 µM

## O=c1[nH]c2nccc(Oc3ccc(NS(=O)(=O)c4ccccc4F)cc3)c2[nH]1
[1]
  IC50: 32.5 µM
[2]
  IC50: 62 µM

## O=C(Nc1ccc(Oc2ccnc3[nH]c(=O)[nH]c23)cc1)Nc1cc(C(F)(F)F)ccc1N1CCOCC1
[1]
  IC50: 0.86 µM
[2]
  IC50: 5.2 µM

## CCn1c(=O)n(CC)c2c(Oc3ccc(NC(=O)Nc4ccc(Cl)c(C(F)(F)F)c4)cc3)ccnc21
[1]
  IC50: 0.305 µM
[2]
  IC50: 22 µM

## O=c1[nH]c2nccc(Oc3ccc(NS(=O)(=O)c4ccccc4)cc3)c2[nH]1
[1]
  IC50: 0.85 µM
[2]
  IC50: 62.7 µM
[11]
  metabolised at 10 µM: 5%

## COc1cccc(CC(=O)Nc2ccc(Oc3ccnc4[nH]c(=O)[nH]c34)cc2)c1
[2]
  IC50: 40 µM

## O=C(Cc1cc(F)cc(F)c1)Nc1ccc(Oc2ccnc3[nH]c(=O)[nH]c23)cc1
[1]
  IC50: > 100 µM
[2]
  IC50: 29 µM

## Cn1c(=O)[nH]c2c(Oc3ccc(NC(=O)Nc4ccc(Cl)c(C(F)(F)F)c4)cc3)ccnc21
[1]
  IC50: 0.045 µM
[12]
  AUC: 9.46 µM·h
[13]
  CL: 0.009 L/h
[14]
  clearance: 0.833 mL/min
[15]
  Cmax: 3230 nM
[16]
  half-life: 4.72 h
[17]
  Cmax: 8080 nM
[18]
  half-life: 4.35 h
[19]
  AUC: 16.4 µM·h
[2]
  IC50: 3.7 µM

## Cn1c(=O)[nH]c2c(Oc3ccc(NC(=O)Nc4cc(C(F)(F)F)ccc4F)cc3)ccnc21
[1]
  IC50: 0.046 µM
[2]
  IC50: 1.94 µM

## O=C(Nc1ccc(Oc2ccnc3[nH]c(=O)[nH]c23)cc1)c1cccc(C(F)(F)F)c1
[1]
  IC50: 17.2 µM
[2]
  IC50: 22 µM

## CNC(=O)c1cc(Oc2ccc(NC(=O)Nc3ccc(Cl)c(C(F)(F)F)c3)cc2)ccn1 [SORAFENIB]
[2]
  IC50: 5 µM
